Measurements published in patent publication US7214470B2, “Fluorine-containing ethylenic monomer having hydroxyl group or fluoroalkyl carbonyl group and fluorine-containing polymer prepared by polymerization of same” (priority 2001, dated 2007).

Experiment: Measurement of pKa by titration with NaOH solution in water/acetone
Format: physicochemical
Conditions: for Measured pKa Exp. Ex. 2: monomer, titration with NaOH solution in water/acetone, room temperature
Experimental: In a solution of water/acetone of 10/15 ml was put 0.7865 g of CH2═CHCH2C(CF3)2OH, followed by stirring at room temperature. After it was confirmed that the solution became homogeneous, titration was carried out with a 0.2 mol/liter NaOH solution. A titration curve was obtained by adding a NaOH solution dropwise in increments of 0.15 ml and recording a pH value at every addition. An equivalence point was determined by an inflection point (maximum differential value of titration curve=dpH/dml) of the titration curve. In this case, the equivalence point was 14.5 ml. […] From a titration curve of water/acetone solution and aqueous solution which had been measured previously as a blank solution, a difference in a pH value derived from an electric potential difference between the solutions at titration of 7.25 ml was 1.29.
In case of titration of 1.0865 g of CH2═CHCH2C(CF3)2OH by the same procedures as above, an equivalence point was 20.15 ml and a half of equivalence point was 10.08 ml. A pH value at a half of the equivalence point was 10.78.
When the same procedures as above were carried out except that about 0.05 mol/liter NaOH solution was used as a titration solution, an equivalence point of 0.115 g of CH2═CHCH2C(CF3)2OH was 8.00 ml and a half of equivalence point was 4.00 ml. A pH value at this time was 10.92.
From those experiments carried out three times, a pKa value of CH2═CHCH2C(CF3)2OH was determined as 9.6.
With respect to the various fluorine-containing ethylenic monomers having OH group shown in Table 1, a pKa value was measured by the same procedures as above.

| Molecule | pKa | Measured pKa Exp. Ex. 2 | pKa value (single titration) (0.115 g, about 0.05 mol/liter NaOH) | pKa value (single titration) (0.7865 g, 0.2 mol/liter NaOH, water/acetone 10/15 ml) | pKa value (single titration) (1.0865 g, 0.2 mol/liter NaOH) |
| --- | --- | --- | --- | --- | --- |
| OC(C(F)=C(F)F)(C(F)(F)F)C(F)(F)F [Prep. Ex. 1, 1,1-bistrifluoromethyl-2,3,3-trifluoro-2-propene-1-ol] | 7.1 |  |  |  |  |
| C=C(F)C(F)(F)OC(F)(C(F)(F)F)C(F)(F)OC(F)(CO)C(F)(F)F (stereo not shown) [perfluoro-(1,1,1,9,9-tetrahydro-2,5-bistrifluoromethyl-3,6-dioxanonenol)] |  | 12.6 |  |  |  |
| CH2═CHCH2C(CF3)2OH |  | 9.6 | 9.54 | 9.69 | 9.64 |
| C=C(F)C(O)(C(F)(F)F)C(F)(F)F [Ex. 4, 1,1-bistrifluoromethyl-2-fluoro-2-propene-1-ol] | 8 |  |  |  |  |
